Reference: ChEMBL document CHEMBL5113417, “Discovery of 4-(3-aminopyrrolidinyl)-3-aryl-5-(benzimidazol-2-yl)-pyridines as potent and selective SST5 agonists for the treatment of congenital hyperinsulinism” (Bioorg Med Chem Lett, 2022)

What was measured:
[1] = target: Somatostatin receptor type 2 (Homo sapiens, UniProt P30874); test: Agonist activity at human SST2; type: functional
[2] = target: Somatostatin receptor type 5 (Homo sapiens, UniProt P35346); test: Agonist activity at human SST5 expressed in CHO-K1 cells assessed as reduction in NKH477-induced intracellular cAMP level; type: functional, cell-based
[3] = target: T1, Cytochrome P450 2D6 (Homo sapiens, UniProt P10635); test: Inhibition of CYP2D6 (unknown origin) preincubated for 30 mins; type: ADME
[4] = Oral bioavailability in Beagle dog at 5 mg/kg; type: ADME, organism-based, Canis lupus familiaris; conditions: in vivo
[5] = Half life in Sprague-Dawley rat at 5 mg/kg, iv; type: ADME, organism-based; conditions: in vivo
[6] = AUC(0 to infinity) in Beagle dog at 5 mg/kg, po; type: ADME, organism-based, Canis lupus familiaris; set-up: time infinity, dose 5 mg/kg, route po; conditions: in vivo
[7] = target: T2, Cytochrome P450 3A4 (Homo sapiens, UniProt P08684); test: Inhibition of CYP3A4 (unknown origin) preincubated for 30 mins; type: ADME
[8] = Volume of distribution at steady state in Sprague-Dawley rat at 5 mg/kg, iv; type: ADME, organism-based; conditions: in vivo
[9] = target: Cytochrome P450 2C19 (Homo sapiens, UniProt P33261); test: Inhibition of CYP2C19 (unknown origin) by fluorescent assay; type: ADME
[10] = Metabolic stability in monkey liver microsomes assessed as intrinsic clearance; type: ADME, Macaca mulatta, Microsome; conditions: rhesus monkey
[11] = target: Voltage-gated inwardly rectifying potassium channel KCNH2 (Homo sapiens, UniProt Q12809); test: Inhibition of hERG by patch clamp assay; type: toxicity
[12] = target: Cytochrome P450 2C9 (Homo sapiens, UniProt P11712); test: Inhibition of CYP2C9 (unknown origin) by fluorescent assay; type: ADME
[13] = Volume of distribution at steady state in Beagle dog at 2.5 mg/kg, iv; type: ADME, organism-based, Canis lupus familiaris; conditions: in vivo
[14] = Cmax in Sprague-Dawley rat at 10 mg/kg, po; type: ADME, organism-based; set-up: dose 10 mg/kg, route po; conditions: in vivo
[15] = Metabolic stability in monkey liver microsomes assessed as half life; type: ADME, Macaca mulatta, Microsome; conditions: rhesus monkey
[16] = Metabolic stability in rat liver microsomes assessed as half life; type: ADME, Microsome
[17] = Metabolic stability in dog liver microsomes assessed as half life; type: ADME, Canis lupus familiaris, Microsome
[18] = target: T1, Cytochrome P450 2D6; test: Inhibition of CYP2D6 (unknown origin); type: ADME
[19] = target: T2, Cytochrome P450 3A4; test: Inhibition of CYP3A4 (unknown origin); type: ADME
[20] = Metabolic stability in human liver microsomes assessed as intrinsic clearance; type: ADME, Microsome
[21] = Cmax in Beagle dog at 5 mg/kg, po; type: ADME, organism-based, Canis lupus familiaris; set-up: dose 5 mg/kg, route po; conditions: in vivo
[22] = Half life in Beagle dog at 2.5 mg/kg, iv; type: ADME, organism-based, Canis lupus familiaris; conditions: in vivo
[23] = Metabolic stability in human liver microsomes assessed as half life; type: ADME, Microsome
[24] = AUC(0 to infinity) in Sprague-Dawley rat at 10 mg/kg, po; type: ADME, organism-based; set-up: time infinity, dose 10 mg/kg, route po; conditions: in vivo
[25] = Metabolic stability in rat liver microsomes assessed as intrinsic clearance; type: ADME, Microsome
[26] = Oral bioavailability in Sprague-Dawley rat at 10 mg/kg; type: ADME, organism-based; conditions: in vivo
[27] = target: Somatostatin receptor type 5 (Rattus norvegicus, UniProt P30938); test: Agonist activity at rat SST5; type: functional
[28] = target: Somatostatin receptor type 3 (Homo sapiens, UniProt P32745); test: Agonist activity at human SST3; type: functional
[29] = target: Somatostatin receptor type 4 (Homo sapiens, UniProt P31391); test: Agonist activity at human SST4; type: functional
[30] = target: Somatostatin receptor type 1 (Homo sapiens, UniProt P30872); test: Agonist activity at human SST1; type: functional
[31] = target: T1, Cytochrome P450 2D6; test: Time dependent inhibition of CYP2D6 (unknown origin) preincubated for 30 mins; type: ADME
[32] = target: T1, Cytochrome P450 2D6; test: Time dependent inhibition of CYP2D6 (unknown origin); type: ADME
[33] = Half life in Sprague-Dawley rat at 2.5 mg/kg, iv; type: ADME, organism-based; conditions: in vivo
[34] = Volume of distribution at steady state in Sprague-Dawley rat at 2.5 mg/kg, iv; type: ADME, organism-based; conditions: in vivo

Somatostatin receptor type 5 (Homo sapiens, UniProt P35346), sequence (P35346 whole entry): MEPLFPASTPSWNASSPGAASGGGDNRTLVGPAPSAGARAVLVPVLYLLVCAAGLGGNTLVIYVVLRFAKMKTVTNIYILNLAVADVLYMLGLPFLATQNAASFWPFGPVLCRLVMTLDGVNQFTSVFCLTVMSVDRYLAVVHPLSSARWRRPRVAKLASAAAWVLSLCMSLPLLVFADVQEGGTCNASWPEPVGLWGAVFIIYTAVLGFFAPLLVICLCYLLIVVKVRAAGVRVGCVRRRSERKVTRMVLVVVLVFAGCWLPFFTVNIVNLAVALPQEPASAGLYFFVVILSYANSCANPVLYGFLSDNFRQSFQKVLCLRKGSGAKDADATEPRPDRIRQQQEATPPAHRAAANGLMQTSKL
T1 sequence (P10635 whole entry): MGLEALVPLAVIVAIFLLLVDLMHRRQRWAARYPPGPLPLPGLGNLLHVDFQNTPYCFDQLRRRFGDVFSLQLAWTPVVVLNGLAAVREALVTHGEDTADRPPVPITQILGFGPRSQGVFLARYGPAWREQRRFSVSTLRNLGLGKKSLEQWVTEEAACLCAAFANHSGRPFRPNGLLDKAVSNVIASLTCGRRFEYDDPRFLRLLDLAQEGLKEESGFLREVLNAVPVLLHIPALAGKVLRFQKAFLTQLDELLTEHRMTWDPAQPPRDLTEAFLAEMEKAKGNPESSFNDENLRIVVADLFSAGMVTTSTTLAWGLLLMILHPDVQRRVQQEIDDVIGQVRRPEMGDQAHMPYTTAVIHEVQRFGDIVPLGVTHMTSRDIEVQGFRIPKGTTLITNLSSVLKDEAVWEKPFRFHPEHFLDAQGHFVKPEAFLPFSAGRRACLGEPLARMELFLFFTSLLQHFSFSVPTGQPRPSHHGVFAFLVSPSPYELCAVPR
T2 sequence (P08684 whole entry): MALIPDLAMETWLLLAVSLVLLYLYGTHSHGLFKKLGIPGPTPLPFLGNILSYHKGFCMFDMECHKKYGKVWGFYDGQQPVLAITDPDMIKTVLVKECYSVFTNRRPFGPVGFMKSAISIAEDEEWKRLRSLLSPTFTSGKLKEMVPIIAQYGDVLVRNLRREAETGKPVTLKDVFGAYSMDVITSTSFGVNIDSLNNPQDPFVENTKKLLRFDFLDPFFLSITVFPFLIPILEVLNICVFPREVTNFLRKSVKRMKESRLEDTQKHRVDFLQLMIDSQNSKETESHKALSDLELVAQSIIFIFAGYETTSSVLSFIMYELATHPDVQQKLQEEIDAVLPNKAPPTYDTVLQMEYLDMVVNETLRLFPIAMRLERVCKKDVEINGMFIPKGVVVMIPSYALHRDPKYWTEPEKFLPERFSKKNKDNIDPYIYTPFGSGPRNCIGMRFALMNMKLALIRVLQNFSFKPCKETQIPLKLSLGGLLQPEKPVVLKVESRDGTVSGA
Somatostatin receptor type 2, sequence (P30874 whole entry): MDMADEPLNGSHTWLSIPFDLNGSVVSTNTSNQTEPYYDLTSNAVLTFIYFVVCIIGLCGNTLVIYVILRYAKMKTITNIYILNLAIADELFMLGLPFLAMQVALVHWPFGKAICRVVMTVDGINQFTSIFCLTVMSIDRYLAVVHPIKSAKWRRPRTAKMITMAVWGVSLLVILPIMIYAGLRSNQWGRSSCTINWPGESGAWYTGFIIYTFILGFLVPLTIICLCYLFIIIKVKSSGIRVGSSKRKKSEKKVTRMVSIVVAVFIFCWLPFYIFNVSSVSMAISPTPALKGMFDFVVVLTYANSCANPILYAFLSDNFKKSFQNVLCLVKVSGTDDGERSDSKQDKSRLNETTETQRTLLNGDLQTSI
Somatostatin receptor type 1, sequence (P30872 whole entry): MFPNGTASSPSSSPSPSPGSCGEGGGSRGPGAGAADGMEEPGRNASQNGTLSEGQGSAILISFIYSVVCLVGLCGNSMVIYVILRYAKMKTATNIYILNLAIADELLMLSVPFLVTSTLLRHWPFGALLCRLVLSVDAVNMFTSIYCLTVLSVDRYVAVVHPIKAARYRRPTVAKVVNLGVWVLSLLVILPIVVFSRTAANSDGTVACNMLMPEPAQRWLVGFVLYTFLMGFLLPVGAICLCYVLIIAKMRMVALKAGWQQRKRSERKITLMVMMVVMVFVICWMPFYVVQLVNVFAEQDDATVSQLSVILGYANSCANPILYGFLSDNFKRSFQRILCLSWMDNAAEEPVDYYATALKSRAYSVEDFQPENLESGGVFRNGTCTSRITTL
Voltage-gated inwardly rectifying potassium channel KCNH2, sequence (Q12809 whole entry): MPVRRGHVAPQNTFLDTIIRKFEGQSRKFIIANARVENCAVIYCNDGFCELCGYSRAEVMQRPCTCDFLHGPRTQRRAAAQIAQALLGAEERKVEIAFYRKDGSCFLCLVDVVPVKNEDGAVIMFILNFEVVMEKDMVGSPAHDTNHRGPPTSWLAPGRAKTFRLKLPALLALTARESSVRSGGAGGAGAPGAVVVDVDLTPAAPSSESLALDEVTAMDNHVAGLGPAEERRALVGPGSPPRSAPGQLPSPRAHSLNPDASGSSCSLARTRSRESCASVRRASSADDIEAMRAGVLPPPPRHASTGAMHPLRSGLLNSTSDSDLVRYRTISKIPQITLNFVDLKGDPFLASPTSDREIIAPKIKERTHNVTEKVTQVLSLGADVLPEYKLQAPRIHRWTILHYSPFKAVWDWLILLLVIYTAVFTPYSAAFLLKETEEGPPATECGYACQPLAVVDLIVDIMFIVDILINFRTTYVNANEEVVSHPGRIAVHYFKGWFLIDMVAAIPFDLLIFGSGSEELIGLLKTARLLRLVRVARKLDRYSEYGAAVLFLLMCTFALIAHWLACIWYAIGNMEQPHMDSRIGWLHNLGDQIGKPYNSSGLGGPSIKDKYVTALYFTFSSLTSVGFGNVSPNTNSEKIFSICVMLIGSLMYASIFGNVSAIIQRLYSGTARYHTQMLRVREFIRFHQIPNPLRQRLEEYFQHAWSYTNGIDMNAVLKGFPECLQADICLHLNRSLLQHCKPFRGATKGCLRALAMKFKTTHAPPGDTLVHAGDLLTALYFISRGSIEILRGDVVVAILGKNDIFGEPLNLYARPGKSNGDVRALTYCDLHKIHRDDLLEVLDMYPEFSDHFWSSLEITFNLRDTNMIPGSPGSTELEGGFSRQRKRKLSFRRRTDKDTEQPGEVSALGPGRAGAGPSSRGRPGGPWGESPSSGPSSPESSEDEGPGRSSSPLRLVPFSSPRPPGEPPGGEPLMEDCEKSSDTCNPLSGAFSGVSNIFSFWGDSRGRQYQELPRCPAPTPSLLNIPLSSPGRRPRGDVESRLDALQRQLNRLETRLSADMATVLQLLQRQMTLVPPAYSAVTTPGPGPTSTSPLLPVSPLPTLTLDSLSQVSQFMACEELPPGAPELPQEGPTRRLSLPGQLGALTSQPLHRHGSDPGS
Somatostatin receptor type 3, sequence (P32745 whole entry): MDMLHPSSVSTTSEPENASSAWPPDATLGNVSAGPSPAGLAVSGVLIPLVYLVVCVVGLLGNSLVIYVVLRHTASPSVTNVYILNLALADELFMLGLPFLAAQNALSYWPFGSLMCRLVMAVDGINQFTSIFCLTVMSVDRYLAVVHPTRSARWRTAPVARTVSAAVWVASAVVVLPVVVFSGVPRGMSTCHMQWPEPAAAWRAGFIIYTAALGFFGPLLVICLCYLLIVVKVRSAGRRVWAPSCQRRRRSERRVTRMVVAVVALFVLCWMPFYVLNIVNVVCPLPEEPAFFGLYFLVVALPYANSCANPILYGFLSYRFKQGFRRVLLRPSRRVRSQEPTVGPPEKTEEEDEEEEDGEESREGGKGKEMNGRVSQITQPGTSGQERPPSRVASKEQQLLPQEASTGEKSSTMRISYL
Cytochrome P450 2C9, sequence (P11712 whole entry): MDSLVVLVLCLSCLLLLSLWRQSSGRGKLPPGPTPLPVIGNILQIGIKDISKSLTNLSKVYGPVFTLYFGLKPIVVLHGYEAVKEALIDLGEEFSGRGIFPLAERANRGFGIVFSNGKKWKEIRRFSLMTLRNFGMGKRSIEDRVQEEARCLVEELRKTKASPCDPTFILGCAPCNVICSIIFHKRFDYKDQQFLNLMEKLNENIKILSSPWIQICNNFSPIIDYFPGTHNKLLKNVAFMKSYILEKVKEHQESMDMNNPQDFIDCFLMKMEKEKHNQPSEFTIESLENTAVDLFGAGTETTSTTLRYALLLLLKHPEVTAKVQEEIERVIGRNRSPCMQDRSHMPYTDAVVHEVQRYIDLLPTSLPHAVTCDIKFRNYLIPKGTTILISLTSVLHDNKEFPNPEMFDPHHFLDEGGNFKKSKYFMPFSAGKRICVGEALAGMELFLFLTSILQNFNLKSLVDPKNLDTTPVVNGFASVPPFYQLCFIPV
Somatostatin receptor type 5 (Rattus norvegicus, UniProt P30938), sequence (P30938 whole entry, looked up): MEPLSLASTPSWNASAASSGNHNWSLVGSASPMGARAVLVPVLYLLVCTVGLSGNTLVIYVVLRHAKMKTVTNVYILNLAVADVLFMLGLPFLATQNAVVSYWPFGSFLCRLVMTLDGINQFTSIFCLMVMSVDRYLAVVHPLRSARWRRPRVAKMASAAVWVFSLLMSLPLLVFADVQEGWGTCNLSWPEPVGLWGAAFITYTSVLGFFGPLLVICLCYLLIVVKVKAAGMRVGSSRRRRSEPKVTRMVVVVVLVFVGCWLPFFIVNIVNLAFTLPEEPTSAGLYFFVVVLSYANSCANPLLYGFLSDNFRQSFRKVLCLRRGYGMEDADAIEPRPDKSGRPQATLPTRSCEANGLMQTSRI
Somatostatin receptor type 4, sequence (P31391 whole entry): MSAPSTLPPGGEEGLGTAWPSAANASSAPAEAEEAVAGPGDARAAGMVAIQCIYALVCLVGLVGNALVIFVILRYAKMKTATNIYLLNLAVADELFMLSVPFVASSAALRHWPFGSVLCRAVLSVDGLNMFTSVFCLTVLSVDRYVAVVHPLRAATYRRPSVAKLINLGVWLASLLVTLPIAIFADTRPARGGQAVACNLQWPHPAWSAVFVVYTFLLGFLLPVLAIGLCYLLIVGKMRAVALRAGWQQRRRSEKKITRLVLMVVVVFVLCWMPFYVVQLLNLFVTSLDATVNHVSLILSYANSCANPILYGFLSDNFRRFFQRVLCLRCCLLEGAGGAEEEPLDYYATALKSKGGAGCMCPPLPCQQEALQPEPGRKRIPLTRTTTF

**Q.** With `Cc1cc(F)cc(-c2cncc(-c3nc4cc(F)ccc4[nH]3)c2N2CC(CN)C2)c1` as the compound, how does the EC50 ([1]; read-out: EC50) read?
**A.** Its EC50 is over 1000 nM.

**Q.** With `Cc1cc(F)cc(-c2cncc(-c3nc4c(C#N)cccc4[nH]3)c2N2CC(CN)C2)c1` as the compound, how does the EC50 [2] read?
**A.** The EC50 was 19 nM.

**Q.** For `Cc1c(F)ccc2[nH]c(-c3cncc(-c4cc(F)cc(C#N)c4)c3N3CC[C@H](N)C3)nc12`, which EC50 [2] is on record?
**A.** The EC50 was 0.65 nM.

**Q.** With `N#Cc1cccc(-c2cncc(-c3nc4c(F)cccc4[nH]3)c2N2C[C@@H](N)[C@H](O)C2)c1` (racemic) as the compound, how does the EC50 [2] read?
**A.** Its EC50 is 46 nM.

**Q.** With `Cc1cc(F)cc(-c2cncc(-c3nc4c(Cl)cccc4[nH]3)c2N2CC(CN)C2)c1` as the compound, how does the EC50 [2] read?
**A.** Its EC50 is 1.2 nM.

**Q.** Which EC50 [2] does the source give for `N#Cc1cccc(-c2cncc(-c3nc4c(F)cccc4[nH]3)c2N2CC[C@H](N)C2)c1` here?
**A.** Its EC50 is 0.55 nM.

**Q.** For `N#Cc1cccc(-c2cncc(-c3nc4c(F)cccc4[nH]3)c2N2CC(N)C(C(F)(F)F)C2)c1` (mixture of isomers), which EC50 [2] is on record?
**A.** The EC50 was 42 nM.

**Q.** Which EC50 [2] does the source give for `Cc1cccc(-c2cncc(-c3nc4c(F)cc(F)cc4[nH]3)c2N2CC(CN)C2)c1` here?
**A.** The EC50 was 2.3 nM.

**Q.** Which EC50 [2] does the source give for `NCC1CN(c2c(-c3cccc(F)c3)cncc2-c2nc3c(F)cc(F)cc3[nH]2)C1` here?
**A.** Its EC50 is 6.1 nM.

**Q.** With `N#Cc1cccc(-c2cncc(-c3nc4c(F)cccc4[nH]3)c2N2CCC(N)(CO)C2)c1` (stereo not drawn) as the compound, how does the EC50 [2] read?
**A.** The EC50 was 1 nM.

**Q.** For `Cc1cc(F)cc(-c2cncc(-c3nc4c(F)cc(F)cc4[nH]3)c2N2CC(CN)C2)c1`, which EC50 [2] is on record?
**A.** The EC50 was 2.2 nM.

**Q.** With `NCC1CN(c2c(-c3nc4c(F)cc(F)cc4[nH]3)cncc2-c2ccccc2F)C1` as the compound, how does the EC50 [2] read?
**A.** The EC50 was 400 nM.

**Q.** Which EC50 [2] does the source give for `Cc1cc(F)cc(-c2cncc(-c3nc4c(F)cc(F)cc4[nH]3)c2N2CC(C)(CN)C2)c1` here?
**A.** Its EC50 is 2.3 nM.

**Q.** For `Cc1cccc2[nH]c(-c3cncc(-c4cc(F)cc(C#N)c4)c3N3CC[C@H](N)C3)nc12`, which IC50 [3] is on record?
**A.** Its IC50 is 7500 nM.

**Q.** And the bioavailability [4]?
**A.** Its bioavailability is 55%.

**Q.** And the t1/2 [5]?
**A.** Its t1/2 is 5.3 min.

**Q.** And the AUC(0-inf) [6]?
**A.** The AUC(0-inf) was 4660 ng·h/mL.

**Q.** And the IC50 [7]?
**A.** Its IC50 is over 10000 nM.

**Q.** And the Vdss [8]?
**A.** The Vdss was 17 L/kg.

**Q.** What about the IC50 [9] of the same compound?
**A.** Its IC50 is over 10000 nM.

**Q.** What about the CLH [10] of the same compound?
**A.** The CLH was 94.3 mL/min/g.

**Q.** And the IC50 [11]?
**A.** The IC50 was 2100 nM.

**Q.** And the IC50 [12]?
**A.** Its IC50 is over 10000 nM.

**Q.** And the Vdss [13]?
**A.** The Vdss was 12.9 L/kg.

**Q.** What about the Cmax [14] of the same compound?
**A.** The Cmax was 78 ng/mL.

**Q.** And the half-life [15]?
**A.** The half-life was 15 min.

**Q.** What about the half-life [16] of the same compound?
**A.** The half-life was over 693 min.

**Q.** And the half-life [17]?
**A.** Its half-life is 347 min.

**Q.** What about the IC50 [18] of the same compound?
**A.** Its IC50 is 10000 nM.

**Q.** And the IC50 [19]?
**A.** The IC50 was over 10000 nM.

**Q.** What about the CLH [20] of the same compound?
**A.** The CLH was 2 mL/min/g.

**Q.** What about the Cmax [21] of the same compound?
**A.** The Cmax was 324 ng/mL.

**Q.** And the t1/2 [22]?
**A.** The t1/2 was 16.9 min.

**Q.** And the half-life [23]?
**A.** The half-life was over 693 min.

**Q.** What about the AUC(0-inf) [24] of the same compound?
**A.** Its AUC(0-inf) is 951 ng·h/mL.

**Q.** And the CLH [25]?
**A.** The CLH was 2 mL/min/g.

**Q.** What about the bioavailability [26] of the same compound?
**A.** The bioavailability was 33%.

**Q.** With `C[C@]1(N)CCN(c2c(-c3cccc(C#N)c3)cncc2-c2nc3c(F)cccc3[nH]2)C1` as the compound, how does the EC50 [2] read?
**A.** The EC50 was 0.047 nM.

**Q.** With `Cc1cccc2c1nc(-c1cncc(-c3cc(F)cc(C#N)c3)c1N1CC[C@H](N)C1)n2C` as the compound, how does the EC50 [2] read?
**A.** Its EC50 is 4.2 nM.

**Q.** For `Cc1cc(F)cc2[nH]c(-c3cncc(-c4cc(F)cc(C#N)c4)c3N3CC[C@H](N)C3)nc12`, which EC50 [2] is on record?
**A.** The EC50 was 2.1 nM.

**Q.** What does the source list for `Cc1ccc(F)c2[nH]c(-c3cncc(-c4cc(F)cc(C#N)c4)c3N3CC[C@H](N)C3)nc12`?
**A.** EC50 [2]: 0.23 nM; IC50 [3]: 4000 nM; IC50 [7]: > 10000 nM; EC50 [28]: 10 nM; EC50 ([1]; read-out: pEC50 (converted)): 251 nM; EC50 [29]: 3.98 nM; IC50 [11]: 280 nM; IC50 [18]: 5300 nM; IC50 [19]: > 10000 nM; EC50 [30]: > 1000 nM; pEC50 [30]: < 6; EC50 [27]: 0.31 nM

**Q.** With `N#Cc1cc(-c2cncc(-c3nc4c(F)cccc4[nH]3)c2N2CC[C@H](N)C2)ccc1F` as the compound, how does the EC50 [2] read?
**A.** The EC50 was 0.62 nM.

**Q.** Which EC50 [2] does the source give for `N#Cc1cccc(-c2cncc(-c3nc4c(F)cc(F)cc4[nH]3)c2N2CC(CN)C2)c1` here?
**A.** The EC50 was 2.6 nM.

**Q.** Which EC50 [2] does the source give for `CC(N)C1CN(c2c(-c3cc(F)cc(C(F)(F)F)c3)cncc2-c2nc3c(F)cc(F)cc3[nH]2)C1` (stereo not drawn) here?
**A.** The EC50 was 0.27 nM.

**Q.** Which EC50 [2] does the source give for `N#Cc1ccc(-c2cncc(-c3nc4c(F)cccc4[nH]3)c2N2CC[C@H](N)C2)cc1F` here?
**A.** The EC50 was 45 nM.

**Q.** For `N[C@H]1CCN(c2c(-c3cc(F)cc(Cl)c3)cncc2-c2nc3c(F)cccc3[nH]2)C1`, which IC50 [31] is on record?
**A.** The IC50 was 90 nM.

**Q.** What about the Cmax [14] of the same compound?
**A.** The Cmax was 181 ng/mL.

**Q.** What about the IC50 [32] of the same compound?
**A.** The IC50 was 400 nM.

**Q.** And the t1/2 [33]?
**A.** The t1/2 was 7.1 min.

**Q.** And the Vdss [34]?
**A.** The Vdss was 22 L/kg.

**Q.** What about the CLH [20] of the same compound?
**A.** The CLH was 10 mL/min/g.

**Q.** And the AUC(0-inf) [24]?
**A.** The AUC(0-inf) was 2480 ng·h/mL.

**Q.** And the CLH [25]?
**A.** The CLH was 14 mL/min/g.

**Q.** And the bioavailability [26]?
**A.** Its bioavailability is 74%.

**Q.** Which EC50 [2] does the source give for `CC1(N)CCN(c2c(-c3cccc(C#N)c3)cncc2-c2nc3c(F)cccc3[nH]2)C1` (stereo not drawn) here?
**A.** Its EC50 is 0.071 nM.

**Q.** Which EC50 [2] does the source give for `NCC1CN(c2c(-c3cccc(Cl)c3)cncc2-c2nc3c(F)cc(F)cc3[nH]2)C1` here?
**A.** Its EC50 is 0.36 nM.
